The source of these data is PMC3560421 (European journal of medicinal chemistry, 2012).

SMILES strings stand for the structures. Read-outs that look alike come from different tables or passages of the source.

For orientation: IC50 means the concentration that inhibits the measured activity by half.

For series [1], the system named is intracellular Leishmania amazonensis. To be noted: read-out: IC50 L. a.; cited from earlier work.
Series [2] deals with intracellular Leishmania donovani. The following applies: read-out: IC50 L. d.; cited from earlier work.
In a further series the test system is Leishmania. To be noted: read-out: IC50 value (antileishmanial, in vitro); cited from earlier work.
Series [3] is described as follows: Preliminary in vivo toxicity evaluation in uninfected animals. The following applies: for Adverse reaction after dosing: mouse, in vivo, ip, 30 mg/kg. Set-up: species or system mice.
In a further series the test system is poly(dA-dT)n. Put plainly: DNA thermal melting. The class given is binding. The following applies: thermal melting with poly(dA-dT); compared with DB766.
The test system of series [4] is intracellular Leishmania amazonensis. Briefly: Efficacy against intracellular Leishmania amazonensis parasites. In kind it is cell-based. The following applies: read-out: IC50 L. a., intracellular L. amazonensis.

With `CC(C)Oc1cc(NC(=N)c2ccccn2)ccc1-c1ccc(-c2ccc(NC(=N)c3ccccn3)cc2OC(C)C)o1` [DB766], the 50% inhibitory concentration (IC50) is 87 nM in series [1], 36 nM in series [2] and under 100 nM in the series on Leishmania.
On to `CC(C)Oc1cc(NC(=N)c2ccccn2)ccc1-c1ccc(NC(=N)c2ccccn2)cc1OC(C)C.Cl.Cl` [compound 13, N,N'-(2,2'-di-isopropoxy-[1,1'-biphenyl]-4,4'-diyl)dipicolinimidamide hydrochloride], for which, in series [3], the “Toxicity to mice (in words)” value is “quite toxic to mice” and the “Adverse reaction after dosing” value is listed as “severe tremors”. The “DNA binding (in words)” value with poly(dA-dT)n is “essentially does not bind to DNA”.
On to `Cl.Cl.N=C(Nc1ccc(-c2ccc(NC(=N)c3ccccn3)cc2)cc1)c1ccccn1` [9a, N,N'-([1,1'-biphenyl]-4,4'-diyl)dipicolinimidamide hydrochloride], for which, in series [3], the “Toxicity to mice (in words)” value is “quite toxic to mice” and the “Adverse reaction after dosing” value is recorded as “severe tremors”. In addition, in the series on poly(dA-dT)n, the “DNA binding (in words)” value is given as “binds with the same affinity as DB766”. Besides, the half-maximal inhibitory concentration (IC50) in series [4] is under 1000 nM.
Regarding `Cl.Cl.N=C(Nc1ccc(Oc2ccc(NC(=N)c3ccccn3)cc2)cc1)c1ccccn1` [9c, N,N'-(oxybis(4,1-phenylene))dipicolinimidamide hydrochloride], in series [3], the “Toxicity to mice (in words)” value was “quite toxic to mice” and the “Adverse reaction after dosing” value is reported as “severe tremors”. The half-maximal inhibitory concentration (IC50) in series [4] is under 1000 nM.
On to `Cl.Cl.N=C(Nc1ccccn1)c1ccc(C(=N)Nc2ccccn2)cc1` [compound 6, N ^1,N ^4-di(pyridin-2-yl)terephthalimidamide hydrochloride], for which, in the series with poly(dA-dT)n, the “DNA binding (in words)” value is “essentially do not bind to DNA”.
The same measure, in the same setting: under `Cl.Cl.N=C(Nc1ccc(NC(=N)c2ccccn2)cc1)c1ccccn1` [3a, N,N'-(1,4-phenylene)dipicolinimidamide hydrochloride] stands “essentially do not bind to DNA”; under `Cl.Cl.N=C(Nc1ccc(NC(=N)c2ncccn2)cc1)c1ncccn1` [3b, N,N'-(1,4-phenylene)dipyrimidine-2-carboximidamide hydrochloride], “essentially do not bind to DNA”.
